The text below walks through data of US20240123079A1 (Seagen Inc., priority 2021, published 2024).

One assay concerns THP1-Dual™ reporter cells. The assay is described as follows: THP1-Dual cell reporter assay (IRF-Lucia luciferase reporter). Type of assay: cell-based, human. The note with it: ADCs: drug linker conjugated to a targeted mAb, 48 h. A digest of the protocol: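 THP1-Dual monocytic cells (~100,000/well) were exposed to compound for 24 h (ADCs 48 h). Secreted IRF-driven Lucia luciferase in the supernatant was quantified by QUANTI-Luc luminescence.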
`CCn1nc(C)cc1C(=O)Nc1nc2cc(S(=O)(=O)NC)ccc2n1C/C=C/Cn1c(NC(=O)c2cc(C)nn2CC)nc2cc(C(N)=O)cc(OCCCN(C)C(=O)CCN3C(=O)C=CC3=O)c21` [Compound 128, (E)-7-(3-(3-(2,5-dioxo-2,5-dihydro-1H-pyrrol-1-yl)-N-methylpropanamido)propoxy)-2-(1-ethyl-3-methyl-1H-pyrazole-5-carboxamido)-1-(4-(2-(1-ethyl-3-methyl-1H-pyrazole-5-carboxamido)-5-(N-methylsulfamoyl)-1H-benzo[d]imidazol-1-yl)but-2-en-1-yl)-1H-benzo[d]imidazole-5-carboxamide]: the “EC50 (ng/mL)” value is on record as >10,000 ng/mL.
For `CCn1nc(C)cc1C(=O)Nc1nc2cc(C(N)=O)cc(OC)c2n1C/C=C/Cn1c(NC(=O)c2cc(C)sn2)nc2cc(C(N)=O)cc(OCCCN(C)C(=O)CCN3C(=O)C=CC3=O)c21` [Compound 107], the “EC50 (ng/mL)” value was >10,000 ng/mL.
In the case of `CCn1nc(C)cc1C(=O)Nc1nc2cc(C(N)=O)cc(OC)c2n1C/C=C/Cn1c(NC(=O)c2cc(C)nn2CC)nc2cc(C(N)=O)cc(OCCCN(C)C(=O)[C@H](Cc3ccccc3)NC(=O)CCN3C(=O)C=CC3=O)c21` [Compound 122], the “EC50” value was 5.6 ng/mL.
Regarding `CCn1nc(C)cc1C(=O)Nc1nc2cc(C(=O)O)cc(OC)c2n1C/C=C/Cn1c(NC(=O)c2cc(C)nn2CC)nc2cc(C(N)=O)cc(OCCCN(C)C(=O)CCN3C(=O)C=CC3=O)c21` [Compound 126, (E)-1-(4-(5-carbamoyl-7-(3-(3-(2,5-dioxo-2,5-dihydro-1H-pyrrol-1-yl)-N-methylpropanamido)propoxy)-2-(1-ethyl-3-methyl-1H-pyrazole-5-carboxamido)-1H-benzo[d]imidazol-1-yl)but-2-en-1-yl)-2-(1-ethyl-3-methyl-1H-pyrazole-5-carboxamido)-7-methoxy-1H-benzo[d]imidazole-5-carboxylic acid], the “EC50 (ng/mL)” value was >10,000 ng/mL.
Still for that read-out and setting: the result for `CCn1nc(C)cc1C(=O)Nc1nc2cc(C(N)=O)cc(OC)c2n1C/C=C/Cn1c(NC(=O)c2cccnn2)nc2cc(C(N)=O)cc(OCCCN(C)C(=O)CCN3C(=O)C=CC3=O)c21` [Compound 96] reads >10,000 ng/mL.
As to `CCn1nc(C)cc1C(=O)Nc1nc2cc(C(N)=O)cc(OC)c2n1C/C=C/Cn1c(NC(=O)c2cc(C)nn2CC)nc2cc(C(N)=O)cc(OCCCN(C)C(=O)[C@H](CC(C)C)NC(=O)CCN3C(=O)C=CC3=O)c21` [Compound 121], the 50% effective concentration (EC50) was found to be 3.0 ng/mL.
Turning to `CCn1cc(C)nc1C(=O)Nc1nc2cc(C(N)=O)cc(OCCCN(C)C(=O)CCN3C(=O)C=CC3=O)c2n1C/C=C/Cn1c(NC(=O)c2cc(C)nn2CC)nc2cc(C(N)=O)cc(OC)c21` [Compound 103], the “EC50 (ng/mL)” value was >10,000 ng/mL.
Consider `CCn1nc(C)cc1C(=O)Nc1nc2cc(C(N)=O)cc(OC)c2n1C/C=C/Cn1c(NC(=O)c2cc(C)nn2CC)nc2cc(C(N)=O)cc(OCCCN(C(=O)CCN3C(=O)C=CC3=O)C3CC3)c21` [Compound 133, (E)-1-(4-(5-carbamoyl-2-(1-ethyl-3-methyl-1H-pyrazole-5-carboxamido)-7-methoxy-1H-benzo[d]imidazol-1-yl)but-2-en-1-yl)-7-(3-(N-cyclopropyl-3-(2,5-dioxo-2,5-dihydro-1H-pyrrol-1-yl)propanamido)propoxy)-2-(1-ethyl-3-methyl-1H-pyrazole-5-carboxamido)-1H-benzo[d]imidazole-5-carboxamide], for which the 50% effective concentration (EC50) is listed as 12.2 ng/mL.

Still in this assay, the particulars now being: Homo sapiens, THP1-Dual; free compounds, 24 h, Lucia reporter signal; read-out: EC50.
Consider `CCn1cc(C(=O)Nc2nc3cc(C(N)=O)cc(OCCCNC)c3n2C/C=C/Cn2c(NC(=O)c3cc(C)nn3CC)nc3cc(C(N)=O)cc(OC)c32)c(C)n1` [Compound 85], for which the EC50 is above 10 µM.
On the same count and under the same terms, the result for `CCn1nc(C)cc1C(=O)Nc1nc2cc(C(N)=O)cc(OC)c2n1C/C=C/Cn1c(NC(=O)c2cc(C)nn2CC)nc2cc(C(N)=O)cc(OCCC3CN(C(=O)CCN4C(=O)CC(SC[C@H](N)C(=O)O)C4=O)C3)c21` (stereo partly drawn) [Compound 29, S-(1-(3-(3-(2-((5-carbamoyl-1-((E)-4-(5-carbamoyl-2-(1-ethyl-3-methyl-1H-pyrazole-5-carboxamido)-7-methoxy-1H-benzo[d]imidazol-1-yl)but-2-en-1-yl)-2-(1-ethyl-3-methyl-1H-pyrazole-5-carboxamido)-1H-benzo[d]imidazol-7-yl)oxy)ethyl)azetidin-1-yl)-3-oxopropyl)-2,5-dioxopyrrolidin-3-yl)-L-cysteine] reads 0.052 µM; that for `CCc1cc(C(=O)Nc2nc3cc(C(N)=O)cc(OCCCNC)c3n2C/C=C/Cn2c(NC(=O)c3cc(C)nn3CC)nc3cc(C(N)=O)cc(OC)c32)n(C)n1` [Compound 87], above 10 µM.
On the same count and under the same terms, the result for `COc1cc(C(N)=O)cc2nc(NC(=O)c3ncccn3)n(C/C=C/Cn3c(NC(=O)c4ncccn4)nc4cc(C(N)=O)cc(O)c43)c12` [Compound 44] reads above 10 µM.
Same read-out and setting: the result for `CCn1nc(C)cc1C(=O)Nc1nc2cc(C(N)=O)cc(OC)c2n1C/C=C/Cn1c(NC(=O)c2cc(C)nn2CC)nc2cc(C(N)=O)cc(OCCCN(C)C(=O)[C@H](COC)NC(=O)CCN3C(=O)CC(SC[C@H](N)C(=O)O)C3=O)c21` (stereo partly shown) [Compound 76] reads 0.0588 µM.
As to `CCn1nc(C)cc1C(=O)Nc1nc2cc(C(N)=O)cc(OC)c2n1C/C=C/Cn1c(NC(=O)c2cc(C)sn2)nc2cc(C(N)=O)cc(OCCCNC)c21` [Compound 90], the EC50 was above 10 µM.
The same measure, in the same setting: the result for `CCn1nc(C)cc1C(=O)Nc1nc2cc(C(N)=O)cc(OC)c2n1C/C=C/Cn1c(NC(=O)c2cc(C)nn2CC)nc2cc(C(N)=O)cc(OCCCOC3CNC3)c21` [Compound 27f] reads 0.038 µM; that for `CCn1nc(C)cc1C(=O)Nc1nc2cc(C(N)=O)cc(OC)c2n1C/C=C/Cn1c(NC(=O)c2cc(C)nn2CC)nc2cc(C(N)=O)cc(OCCCN(C)C(=O)[C@H](CO)NC(=O)CCN3C(=O)CC(SC[C@H](N)C(=O)O)C3=O)c21` (stereo partly shown) [Compound 75], 0.0577 µM; that for `CCn1nc(C)cc1C(=O)Nc1nc2cc(C(N)=O)cc(O)c2n1C/C=C/Cn1c(NC(=O)c2cc(C)nn2CC)nc2cc(C(N)=O)cc(OCCCN3CCOCC3)c21` [Compound 70], 0.0016 µM.
On the same count and under the same terms, the result for `CCn1cccc1C(=O)Nc1nc2cc(C(N)=O)cc(O)c2n1C/C=C/Cn1c(NC(=O)c2cccn2CC)nc2cc(C(N)=O)cc(OC)c21` [Compound 41] reads above 10 µM; that for `COc1cc(C(N)=O)cc2nc(NC(=O)c3cc(Cl)nn3C)n(C/C=C/Cn3c(NC(=O)c4cc(Cl)nn4C)nc4cc(C(N)=O)cc(O)c43)c12` [Compound 50], above 10 µM.
On the same count and under the same terms, the result for `COc1cc(C(N)=O)cc2nc(NC(=O)c3ccnnc3)n(C/C=C/Cn3c(NC(=O)c4ccnnc4)nc4cc(C(N)=O)cc(O)c43)c12` [Compound 43] reads above 10 µM.
On to `CCn1nc(C)cc1C(=O)Nc1nc2cc(S(N)(=O)=O)ccc2n1C/C=C/Cn1c(NC(=O)c2cc(C)nn2CC)nc2cc(C(N)=O)cc(OCCCNC)c21` [Compound 25g], for which the EC50 turned out to be 1.58 µM.
The same measure, in the same setting: the result for `COc1cc(C(N)=O)cc2nc(NC(=O)c3cc(C)no3)n(C/C=C/Cn3c(NC(=O)c4cc(C)no4)nc4cc(C(N)=O)cc(O)c43)c12` [Compound 58] reads above 10 µM.
`CCc1nc(C)oc1C(=O)Nc1nc2cc(C(N)=O)cc(OCCCNC)c2n1C/C=C/Cn1c(NC(=O)c2cc(C)nn2CC)nc2cc(C(N)=O)cc(OC)c21` [Compound 95]: the EC50 turned out to be 0.0129 µM.
The same measure, in the same setting: the result for `CCn1nc(C)cc1C(=O)Nc1nc2cc(C(N)=O)cc(OC)c2n1C/C=C/Cn1c(NC(=O)c2cc(C)nn2CC)nc2cc(C(N)=O)cc(OCCCN(C)C(=O)[C@@H](N)[C@@H](C)OC)c21` [Compound 120] reads 0.0052 µM.
The same measure, in the same setting: the result for `CCc1nc(C)oc1C(=O)Nc1nc2cc(C(N)=O)cc(OCCCOC3CN(C(=O)CCN4C(=O)CC(SC[C@H](N)C(=O)O)C4=O)C3)c2n1C/C=C/Cn1c(NC(=O)c2cc(C)nn2CC)nc2cc(C(N)=O)cc(OC)c21` (stereo partly drawn) [Compound 156, S-(1-(3-(3-(3-((5-carbamoyl-1-((E)-4-(5-carbamoyl-2-(1-ethyl-3-methyl-1H-pyrazole-5-carboxamido)-7-methoxy-1H-benzo[d]imidazol-1-yl)but-2-en-1-yl)-2-(4-ethyl-2-methyloxazole-5-carboxamido)-1H-benzo[d]imidazol-7-yl)oxy)propoxy)azetidin-1-yl)-3-oxopropyl)-2,5-dioxopyrrolidin-3-yl)-L-cysteine] reads 1.56 µM; that for `CCn1nc(C)cc1C(=O)Nc1nc2cc(C(N)=O)cc(OC)c2n1C/C=C/Cn1c(NC(=O)c2cc(C)nn2C)nc2cc(C(N)=O)cc(OCCCNC)c21` [Compound 88], 0.394 µM.
Consider `CCn1nc(C)cc1C(=O)Nc1nc2cc(C(N)=O)cc(OC)c2n1C/C=C/Cn1c(NC(=O)c2cc(C)nn2CC)nc2cc(C(N)=O)cc(OCCCN(C)C(=O)[C@H](CC(=O)O)NC(=O)CCN3C(=O)CC(SC[C@H](N)C(=O)O)C3=O)c21` (stereo partly shown) [Compound 71], for which the EC50 stood at 0.0701 µM.

Staying with this assay, now noted: free compounds, 24 h, Lucia reporter signal; read-out: EC50.
Turning to `CCn1nc(C)cc1C(=O)Nc1nc2cc(C(N)=O)cc(OC)c2n1C/C=C/Cn1c(NC(=O)c2cc(C)nn2CC)nc2cc(C(N)=O)cc(OCCCOC3CN(C(=O)OC(C)(C)C)C3)c21` [Compound 27e], the EC50 is 0.0013 µM.
